The values that follow come from ChEMBL document CHEMBL5346908, “Recent advances of mitochondrial complex I inhibitors for cancer therapy: Current status and future perspectives” (Eur J Med Chem, 2023).

One series relates to MDA-MB-435. The series can be described thus: Antiproliferative activity against human MDA-MB-435 cells assessed as reduction in cell viability incubated for 72 hrs by cell-titer glo assay. The conditions noted are these: MDA-MB-435, 72 h. Format: functional, cell-based.
The subject of series [1] is MDA-MB-231. The series can be described thus: Antiproliferative activity against human MDA-MB-231 cells assessed as reduction in cell viability incubated for 72 hrs by cell-titer glo assay. Format: functional, cell-based. The note with it: MDA-MB-231, 72 h.
Series [2] can be described thus: Inhibition of NADH-ubiquinone oxidoreductase (unknown origin) binding to ETC complex 1. Further details: species or system Homo sapiens.
Series [3] relates to HCT-116. The series can be described thus: Antiproliferative activity against human HCT-116 cells assessed as reduction in cell viability. In kind it is functional, cell-based.
The nature of series [4]: Antiproliferative activity against mouse L929 cells assessed as inhibition of cell growth incubated for 5 days by MTT assay. In kind it is toxicity, cell-based. A general note: Formazan colour is commonly taken as a measure of viable cells.
In series [5] the test system is HCT-116. As to the kind of experiment: Inhibition of mitochondrial respiration in human HCT-116 cells assessed as oxygen consumption rate incubated for 1 hr by Seahorse XF24 extracellular flux analyzer. The conditions noted are these: HCT-116, 1 h. Format: functional, cell-based.
The test system of series [6] is MDA-MB-231. The series can be described thus: Inhibition of mitochondrial respiration in human MDA-MB-231 cells assessed as oxygen consumption rate incubated for 1 hr by Seahorse XF24 extracellular flux analyzer. In kind it is functional, cell-based. The conditions noted are these: MDA-MB-231, 1 h.
Series [7] can be described thus: Antiproliferative activity against mouse TA3/Ha cells assessed as reduction in cell growth. In kind it is functional, cell-based.
The next series deals with NCI-H460. The series can be described thus: Antiproliferative activity against human NCI-H460 cells assessed as reduction in cell viability incubated for 48 hrs by cell titer glow assay. In kind it is functional, cell-based. The note with it: NCI-H460, 48 h.
Another series relates to Melanoma cell line. The series can be described thus: Antiproliferative activity against human melanoma cells assessed as reduction in cell viability incubated for 72 hrs by CellTiter-Fluor reagent based fluorescence analysis. Format: functional.
The test system of another series is THP-1. The series can be described thus: Antiproliferative activity against human THP-1 cells assessed as cell growth inhibition incubated for 72 hrs by MTT assay. Format: functional, cell-based. The note with it: THP-1, 72 h.
A further series has as its system HL-60. The series can be described thus: Antiproliferative activity against human HL-60 cells assessed as cell growth inhibition incubated for 72 hrs by MTT assay. The note with it: HL-60, 72 h. In kind it is functional, cell-based.
For a further series, the system named is KG-1. The series can be described thus: Antiproliferative activity against human KG-1 cells assessed as cell growth inhibition incubated for 72 hrs by MTT assay. Format: functional, cell-based. The note with it: KG-1, 72 h.
Series [8] has as its system NSCLC. The series can be described thus: Antitumor activity against human NSCLC cells xenografted in orthotopic lung tumor mouse model assessed as reduction in tumor growth incubated for 8 weeks. In kind it is functional. The note with it: 1344 h. (A xenograft is tissue or cells of one species grown in another, often human tumour cells in immunodeficient mice.)
Series [9] deals with NSCLC. The series can be described thus: Antiproliferative activity against human NSCLC cells assessed as reduction in cell viability incubated for 72 hrs by MTT assay. Format: functional, cell-based.
Series [10] can be described thus: Antiproliferative activity against human DFCI024 cells assessed as reduction in cell growth incubated for 72 hrs by Cell-titer glo assay. Format: functional, cell-based. The note with it: DFCI024, 72 h.
Another series relates to NCI-H157. The series can be described thus: Antiproliferative activity against human NCI-H157 assessed as reduction in cell growth incubated for 72 hrs by Cell-titer glo assay. The conditions noted are these: NCI-H157, 72 h. In kind it is functional, cell-based.
In the next series the test system is NCI-H1581. As to the kind of experiment: Antiproliferative activity against human NCI-H1581 cells assessed as reduction in cell growth incubated for 72 hrs by Cell-titer glo assay. Format: functional, cell-based. The note with it: NCI-H1581, 72 h.
The test system of the next series is NCI-H1693. As to the kind of experiment: Antiproliferative activity against human NCI-H1693 assessed as reduction in cell growth incubated for 72 hrs by Cell-titer glo assay. The conditions noted are these: NCI-H1693, 72 h. Format: functional, cell-based.
Series [11] concerns 4T1. The series can be described thus: Antitumor activity against mouse 4T1 cells xenografted in BALB/c mouse model assessed as peak plasma level at 100 mg/kg, ip. In kind it is functional.
The nature of series [12]: Half life in tumor of BALB/c mouse model xenografted with 4T1 cells at 100 mg/kg, ip measured after 4 hrs. In kind it is ADME, organism-based.
Another series has as its system A-375. As to the kind of experiment: Antiproliferative activity against human A-375 cells assessed as inhibition of cell growth measured after 72 hrs by CCK8 assay. Format: functional, cell-based. The note with it: A-375, 72 h.
Series [13] in a line: Half life in BALB/c mouse plasma at 100 mg/kg, ip. In kind it is ADME, organism-based.
For series [14], the system named is 4T1. As to the kind of experiment: Antitumor activity against mouse 4T1 cells xenografted in BALB/c mouse model assessed as peak tumor level at 100 mg/kg, ip measured after 4 hrs. Format: functional.
Series [15] can be described thus: Oral bioavailability in human. The conditions noted are these: in vivo. Format: ADME, organism-based.
The target of series [16] is T1, Receptor tyrosine-protein kinase erbB-2 (Homo sapiens, UniProt P04626). As to the kind of experiment: Inhibition of ERBB2 (unknown origin).
T1 sequence (P04626 whole entry): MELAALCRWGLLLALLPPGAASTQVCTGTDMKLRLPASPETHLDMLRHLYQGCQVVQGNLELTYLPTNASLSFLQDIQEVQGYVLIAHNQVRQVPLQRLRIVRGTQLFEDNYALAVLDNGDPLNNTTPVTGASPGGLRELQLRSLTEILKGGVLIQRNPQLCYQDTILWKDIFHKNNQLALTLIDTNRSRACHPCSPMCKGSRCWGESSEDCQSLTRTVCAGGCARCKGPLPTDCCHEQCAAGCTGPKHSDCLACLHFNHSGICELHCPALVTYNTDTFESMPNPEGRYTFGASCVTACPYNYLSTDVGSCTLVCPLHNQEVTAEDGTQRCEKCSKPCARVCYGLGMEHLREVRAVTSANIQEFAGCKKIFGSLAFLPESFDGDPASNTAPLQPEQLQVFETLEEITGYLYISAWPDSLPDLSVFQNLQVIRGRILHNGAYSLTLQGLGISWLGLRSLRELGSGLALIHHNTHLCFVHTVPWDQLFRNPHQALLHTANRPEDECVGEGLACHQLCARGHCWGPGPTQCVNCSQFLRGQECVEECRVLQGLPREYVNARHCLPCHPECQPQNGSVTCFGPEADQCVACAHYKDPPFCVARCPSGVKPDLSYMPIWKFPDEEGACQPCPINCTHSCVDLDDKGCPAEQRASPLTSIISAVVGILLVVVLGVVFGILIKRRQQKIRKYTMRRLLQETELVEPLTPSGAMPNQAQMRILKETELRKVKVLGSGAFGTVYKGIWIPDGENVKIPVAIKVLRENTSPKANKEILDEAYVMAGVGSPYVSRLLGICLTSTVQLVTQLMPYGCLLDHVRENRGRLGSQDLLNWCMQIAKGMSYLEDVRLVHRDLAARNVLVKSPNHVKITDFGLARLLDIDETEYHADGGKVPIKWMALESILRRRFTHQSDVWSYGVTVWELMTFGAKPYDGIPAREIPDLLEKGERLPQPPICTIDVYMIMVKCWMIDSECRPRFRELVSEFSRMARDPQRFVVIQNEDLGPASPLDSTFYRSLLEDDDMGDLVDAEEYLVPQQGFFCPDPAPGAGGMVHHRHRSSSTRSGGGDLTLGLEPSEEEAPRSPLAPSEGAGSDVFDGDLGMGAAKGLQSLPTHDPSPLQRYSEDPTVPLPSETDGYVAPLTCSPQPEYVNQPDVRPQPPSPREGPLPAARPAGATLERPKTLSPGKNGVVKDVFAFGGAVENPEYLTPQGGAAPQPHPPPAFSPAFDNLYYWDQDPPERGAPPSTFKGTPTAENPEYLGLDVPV
Series [17] addresses T1, Receptor tyrosine-protein kinase erbB-2. The series can be described thus: Inhibition of ERBB2 (unknown origin) in human NCI-H1975 cells assessed as increase in mitochondrial ROS level incubated for 48 hrs by Western blot analysis.
Series [18] relates to HT-29. As to the kind of experiment: Inhibition of colony formation of human HT-29 cells incubated for 7 days in absence of glucose by crystal violet staining based analysis. The note with it: HT-29, 168 h. Format: functional, cell-based.
Series [19] deals with HT-29. The series can be described thus: Inhibition of colony formation of human HT-29 cells assessed as reduction in colonies incubated for 7 days by crystal violet staining based analysis. The note with it: HT-29, 168 h. Format: functional, cell-based.
The nature of series [20]: Cytotoxicity against Trichoplusia ni BTI-TN-5B1-4 cells assessed as reduction cell proliferation incubated for 24 hrs by MTT assay. Format: toxicity, cell-based.
Another series relates to HepG2. The series can be described thus: Cytotoxicity against human HepG2 cells assessed as reduction cell proliferation incubated for 24 hrs by MTT assay. Format: functional, cell-based. The note with it: HepG2, 24 h.
Another series has as its system HEK293. The series can be described thus: Cytotoxicity against human HEK293 cells assessed as reduction in cell proliferation incubated for 24 hrs by MTT assay. In kind it is functional, cell-based. The note with it: HEK293, 24 h.
The next series deals with L1210. The series can be described thus: Antitumor activity against mouse L1210 cells xenografted in […] model assessed as prolongation of life span relative to control. In kind it is functional.
The nature of series [21]: Inhibition of mitochondrial respiration in Sprague-Dawley rat liver. In kind it is functional, tissue-based.
Another series concerns MCF7. The series can be described thus: Antiproliferative activity against human MCF7 cells assessed as reduction in cell viability incubated for 72 hrs by MTT assay. The note with it: MCF7, 72 h. Format: functional, cell-based.

Converted amounts (≈) assume the structure as drawn.

On to `Cc1ccc(Sc2cccc3[nH]c4nc(N)nc(N)c4c23)cc1`, for which the 50% inhibitory concentration (IC50) worked out at 11900 nM in the series with MDA-MB-435 and 6900 nM in the series on MDA-MB-231 [1]. For the same molecule, in series [2], the Ki amounted to 840 nM.
Consider `Cc1cc(OCc2nnc(SC3CCCC3)n2-c2cccnc2)ccc1-c1ccc(S(C)(=O)=O)cc1`, for which the IC50 in the series with HCT-116 [3] amounted to 450 nM. In [4], the half-maximal inhibitory concentration (IC50) at 5 days worked out at 1.3 nM.
`O[C@@H](CNC[C@H](O)[C@H]1CCc2cc(F)ccc2O1)[C@@H]1CCc2cc(F)ccc2O1`: the half-maximal inhibitory concentration (IC50) in the series on HCT-116 [5] worked out at 900 nM; with MDA-MB-231 [6], 2100 nM.
As for `CC1(C)C=CC(=O)c2c(O)c3c(c(O)c21)CC=CC3`, in series [7], the IC50 was 13000 nM.
As for `Cc1cc(-c2nc(-c3ccc(OC(F)(F)F)cc3)no2)nn1Cc1ccnc(N2CCN(C3CC3)CC2)c1`, in the series with NCI-H460, the EC50 came out at 3 nM. Moreover, the half-maximal inhibitory concentration (IC50) in the series with Melanoma cell line is 2 nM.
`Cc1nc(-c2nc(-c3ccc(OC(F)(F)F)cc3)no2)nn1Cc1cccc(N2CCC(S(C)(=O)=O)CC2)c1`: the EC50 with THP-1, in the series with HL-60 and in the series with KG-1 was 3 nM in each case.
Consider `O=C(NCCCCCCCCCC[P+](c1ccccc1)(c1ccccc1)c1ccccc1)c1nn(Cc2ccc(Cl)cc2Cl)c2ccccc12`, for which, in the series with NSCLC [8], the ED50 turned out to be 7.5 µmol/kg. The half-inhibitory concentration (IC50) in the series with NSCLC [9] stood at 740 nM.
`CCCCCn1c(=O)[nH]c2cc(C(=O)N3CCN(c4ccc([N+](=O)[O-])cc4)CC3)ccc2c1=O`: the IC50 (in [10]; with NCI-H157; in the series with NCI-H1581; in the series on NCI-H1693) was 200 nM each time.
Take `CCCCc1ccc(N)c(C)c1`: the Activity with 4T1 [11] worked out at 25 µM; with 4T1 [14] it was 11 µM. Further, the half-life in [12] was determined as 1.2 h; in [13], 1.1 h. For the same molecule, the half-inhibitory concentration (IC50) with A-375 was found to be 100000 nM.
With `N=C(NC(=N)N1CCCC1)Nc1ccc(OC(F)(F)F)cc1` [LIXUMISTAT], the bioavailability in [15] was determined as 72.9%.
With `FC(F)(F)c1ccc(/C=C/c2nc(COc3ccc(CCCCn4ccnn4)cc3)co2)cc1` [MUBRITINIB], the half-maximal inhibitory concentration (IC50) stood at 51 nM in [16] and 80 nM in [17].
For `C/C=C(\C)[C@H](O)[C@H](C)/C=C(C)/C=C/C/C(C)=C/Cc1nc(OC)c(OC)c(O)c1C` [PIERICIDIN A], the concentration for half-maximal inhibition (IC50) in the series on HT-29 [18] was 7.7 nM; with HT-29 [19] it was 6.4 nM; in the series with HepG2, 234000 nM; with HEK293, 229000 nM. Besides, the 50% inhibitory concentration (IC50) at 24 h in series [20] is 61 nM.
Turning to `CCCCCCCCCC[C@H](O)[C@H]1CC[C@H]([C@H]2CC[C@H]([C@H](O)CCCCCCCCCC[C@@H](O)CC3=C[C@H](C)OC3=O)O2)O1` [REL-SQUAMOCIN-G], in the series with L1210, the Activity is 38%. In [21], this molecule gave an IC50 of 9.5 nM.
In the case of `C=C(C)[C@H]1Cc2c(ccc3c2O[C@@H]2COc4cc(OC)c(OC)cc4[C@@H]2C3=O)O1` [ROTENONE], in series [4], the half-maximal inhibitory concentration (IC50) at 5 days worked out at 16.1 nM. In addition, the midpoint of inhibition in [21], the IC50, lay at 19.3 nM.
Turning to `CCCCCC[C@H](O)CCC[C@H](O)[C@H]1CC[C@H]([C@H]2CC[C@H]([C@H](O)CCCCCCCCCCCCC3=C[C@H](C)OC3=O)O2)O1` [SQUAMOCIN], the concentration for half-maximal inhibition (IC50) with MCF7 was determined as 0.8 ng/mL (≈ 1.28 nM).

As usually defined, the IC50 is the concentration needed to halve the response being measured. One may read the Ki as a measure of affinity in units of concentration, obtained from inhibition or displacement. A higher Ki goes with weaker binding. The term EC50 denotes the concentration needed to bring the measured effect to its halfway point. For orientation: ED50 means the midpoint of the dose-response relation. The term half-life denotes the time needed for the level to fall by half in the phase considered. A lower half-life goes with fast loss. As a reminder, the bioavailability is dose-corrected exposure relative to a reference, in per cent. Lower therefore signals little systemic uptake.
